Broadly, the EC50 is the concentration at which the effect is half-maximal.

Assay [1] has as its system symmetric dimethylation of arginine (SDMA) of PRMT5 substrates in MCF-7 cells. The assay can be described thus: PRMT5 Cell Target Engagement (TE) Assay. Format: cell-based. Particulars: Homo sapiens, MCF7, 72 h, treated for 3 days, nuclear SDMA by high content imaging, top concentration 10000 nM. The text has this: The PRMT5 TE assay is a biomarker assay for identifying compounds that inhibit symmetric dimethylation of arginine (SDMA) of PRMT5 substrates. The following substrates have been reported for PRMT5: Histone H2A and H4 R3, Histone H3 R2, Histone H3 R8, spliceosome Sm proteins, ribosomal protein RPS10, p53, FEN1, nucleoplasmin, nucleolin, EGFR and EBNA. The assay will focus on detecting symmetrically dimethylated nuclear proteins using high content imaging technology. Detection of the expression of symmetrically dimethylated nuclear proteins is through a mixture of primary rabbit monoclonal antibodies to SDMA (CST 13222), which in turn recognized by an Alexafluor 488 dye-conjugated anti-rabbit IgG secondary antibody. The IN Cell Analyzer 2200 or Opera-Phenix measures nuclear Alexafluor 488 fluorescent dye intensity that is directly related to the level of expression of symmetrically dimethylated nuclear proteins at the single cell level. Nuclear AF488 dye intensities are compared to the mean value for DMSO treated cells (MIN) to report percent of inhibition for each compound-treated well.
In this assay, the cell potency (EC50) of each compound was determined from a ten point (1:3 serial dilution; top compound concentration of 10000 nM) titration curve using the following outlined procedure. Each well of a BD falcon collagen coated black/clear bottom 384-well plate was seeded with 4000 MCF-7 cells in 30 μl media and allowed to attach for 5 hours. Media is ATCC-formulated Eagle's Minimum Essential Medium, Catalog No. 30-2003. The following components were added to the base medium: 0.01 mg/mL human recombinant insulin; fetal bovine serum to a final concentration of 10%. Additional 30 µl of media containing 2× compounds were added to each well. Cells were treated for 3 days in 37° C. CO2 incubator. On day 3, cells were fixed with Cytofix, permeabilized with 0.4% Triton-X-100/Cytofix, and washed with D-PBS without Ca/Mg. Cells were blocked with Licor Odessey blocking reagent for 1 hour at room temperature, followed by incubation with anti-SDMA (1:1000) antibody at 4° C. overnight. 1° antibody was removed, followed by three washings with DPBS without Ca/Mg and 0.05% Tween20. Hoechst (5 μg/mL), Cell Mask deep stain (1:2000) and Alexa488-conjugated goat anti-rabbit IgG (2 μg/mL) was added for 1 hour at room temperature. A final washing step (three washes) was performed before sealing plate for imaging on In Cell Analyzer 2200 or Opera-Phenix. Images from analyzer were uploaded to Columbus for image analysis. IC50 values were determined by 4 parameters robust fit of percent fluorescence units vs. (Log 10) compound concentrations.

Assay [2] has as its target T1, Full-length (FL)-PRMT5-MEP50 enzyme complex (Homo sapiens, UniProt O14744).
T1 construct: Full-length (FL)-PRMT5-MEP50 enzyme complex (recombinant proteins from baculovirus-transfected Sf21 cells: FL-PRMT5; MW=73837 kDa and FL-MEP50; MW=38614); made in house; host or cells: baculovirus-transfected Sf21 insect cells
In words: PRMT5-MEP50 Enzyme Methylation Assay. Type of assay: biochemical. The settings on record: 1.0 nM PRMT5-MEP50, 75 nM biotinylated peptide, 15 μM SAM. The method, boiled down:
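Compound was pre-incubated 60 min at 37°C with 1.0 nM enzyme and 15 μM SAM (final) in 50 mM Bicine pH 8.0, then 75 nM biotinylated H4R3(Me1) peptide was added and reacted 150 min; twenty-point 1:2 titration from 100000 nM, 1% DMSO. Formic acid quench; SAMDI mass spectrometry measured Me1-to-Me2 conversion, EC50 by 4- or 7-parameter regression.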

[3] abbreviates: one EC50: 4 parameters single site sigmoidal model, EC50 1: first value of 7 parameters biphasic model, read-out: Enzyme Methylation Assay (EC50 or EC50 1).
Where [4] appears, read: second EC50 of 7 parameters biphasic model, read-out: Enzyme Methylation Assay (EC50 2).

Molecules are shown by their SMILES. Where two headings read alike, the source gives them in different places.

T1 sequence (O14744 whole entry): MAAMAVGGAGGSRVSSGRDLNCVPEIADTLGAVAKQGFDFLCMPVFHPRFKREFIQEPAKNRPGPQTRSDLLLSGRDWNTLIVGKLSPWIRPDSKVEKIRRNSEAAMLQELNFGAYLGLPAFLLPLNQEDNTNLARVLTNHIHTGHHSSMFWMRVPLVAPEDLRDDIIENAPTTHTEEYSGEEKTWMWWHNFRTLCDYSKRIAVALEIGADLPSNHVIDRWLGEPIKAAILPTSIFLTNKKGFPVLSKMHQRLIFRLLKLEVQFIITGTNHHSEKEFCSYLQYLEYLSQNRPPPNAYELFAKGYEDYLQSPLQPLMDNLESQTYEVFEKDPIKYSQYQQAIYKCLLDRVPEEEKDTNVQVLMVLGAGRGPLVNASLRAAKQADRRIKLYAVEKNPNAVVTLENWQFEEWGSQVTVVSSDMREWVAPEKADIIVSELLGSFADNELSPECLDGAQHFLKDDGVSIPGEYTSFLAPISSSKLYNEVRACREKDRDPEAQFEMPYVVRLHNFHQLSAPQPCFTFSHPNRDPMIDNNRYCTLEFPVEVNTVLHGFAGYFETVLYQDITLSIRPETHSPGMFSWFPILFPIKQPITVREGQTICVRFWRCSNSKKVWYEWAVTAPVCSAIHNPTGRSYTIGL
T1 sequence (Q9BQA1 whole entry partner): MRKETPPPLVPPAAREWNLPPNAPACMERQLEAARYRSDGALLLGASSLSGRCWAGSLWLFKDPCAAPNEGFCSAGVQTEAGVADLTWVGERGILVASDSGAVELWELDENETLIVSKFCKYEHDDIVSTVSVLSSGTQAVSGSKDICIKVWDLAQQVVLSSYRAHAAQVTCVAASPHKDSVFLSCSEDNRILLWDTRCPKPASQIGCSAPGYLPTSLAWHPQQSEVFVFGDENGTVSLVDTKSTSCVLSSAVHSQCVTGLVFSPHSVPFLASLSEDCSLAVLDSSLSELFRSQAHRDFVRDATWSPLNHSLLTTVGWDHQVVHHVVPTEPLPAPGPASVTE

Regarding `Nc1nc2cc(C[C@@H]3CC[C@@]4(O)[C@@H]3O[C@@H](n3cc(C5CC5)c5c(N)ncnc53)[C@@H]4O)ccc2cc1F` [Example 50, (2R,3R,3aS,6S,6aR)-2-(4-amino-5-cyclopropyl-7H-pyrrolo[2,3-d]pyrimidin-7-yl)-6-[(2-amino-3-fluoroquinolin-7-yl)methyl]hexahydro-3aH-cyclopenta[b]furan-3,3a-diol], the values for the EC50 in assay [1] and in assay [2] (setting [3]) were 0.7 nM and 0.3 nM, respectively.

`Cc1cn([C@@H]2O[C@@H]3[C@@H](Oc4ccc5cc(Cl)c(N)nc5c4)CC[C@]3(O)[C@H]2O)c2ncnc(N)c12` [Example 64, (2R,3R,3aS,6S,6aR)-6-((2-amino-3-chloroquinolin-7-yl)oxy)-2-(4-amino-5-methyl-7H-pyrrolo[2,3-d]pyrimidin-7-yl)hexahydro-3aH-cyclopenta[b]furan-3,3a-diol 2,2,2-trifluoroacetate]: the results for the concentration for a half-maximal effect (EC50) in assay [1] and in assay [2] (setting [3]) were 16.2 nM and 0.3 nM, respectively.

Regarding `Cc1cn([C@@H]2O[C@@H]3[C@@H](Oc4ccc5cc(F)c(N)nc5c4)CC[C@]3(O)[C@H]2O)c2ncnc(N)c12` [Example 65, (2R,3R,3aS,6S,6aR)-6-((2-amino-3-fluoroquinolin-7-yl)oxy)-2-(4-amino-5-methyl-7H-pyrrolo[2,3-d]pyrimidin-7-yl)hexahydro-3aH-cyclopenta[b]furan-3,3a-diol 2,2,2-trifluoroacetate], the EC50 in assay [1] amounted to 179 nM; in assay [2] (setting [3]) it was 0.2 nM; in assay [2] (setting [4]) it was 200 nM.

Consider `CCc1cn([C@@H]2O[C@@H]3[C@@H](Oc4ccc5cc(Br)c(N)nc5c4)CC[C@]3(O)[C@H]2O)c2ncnc(N)c12` [Example 69, (2R,3R,3aS,6S,6aR)-6-((2-amino-3-bromoquinolin-7-yl)oxy)-2-(4-amino-5-ethyl-7H-pyrrolo[2,3-d]pyrimidin-7-yl)hexahydro-3aH-cyclopenta[b]furan-3,3a-diol], for which the 50% effective concentration (EC50) is 103 nM in assay [1] and 1.1 nM in assay [2] (setting [3]).

Take `C[C@]1(CCc2ccc3cc4c(nc3c2)NCC4)C[C@@H](n2ccc3c(N)ncnc32)[C@H](O)[C@@H]1O` [Example 126, (1S,2R,3S,5R)-5-(4-amino-7H-pyrrolo[2,3-d]pyrimidin-7-yl)-3-(2-(2,3-dihydro-1H-pyrrolo[2,3-b]quinolin-7-yl)ethyl)-3-methylcyclopentane-1,2-diol]: the EC50 in assay [2] (setting [3]) was 0.6 nM.

As to `Cc1nc(N)nc2c1ccn2[C@@H]1O[C@@H]2[C@H](Cc3ccc4cc(Br)c(N)nc4c3)CC[C@]2(O)[C@H]1O` [Example 127, (2R,3R,3aS,6S,6aR)-6-((2-amino-3-bromoquinolin-7-yl)methyl)-2-(2-amino-4-methyl-7H-pyrrolo[2,3-d]pyrimidin-7-yl)hexahydro-3aH-cyclopenta[b]furan-3,3a-diol], in assay [2] (setting [3]), the EC50 came out at 0.7 nM.

As for `Nc1nc2cc(O[C@H]3CC[C@@]4(O)[C@@H]3O[C@@H](n3ccc5c(N)ncnc53)[C@@H]4O)ccc2cc1C(F)F` [Example 128, (2R,3R,3aS,6S,6aR)-6-((2-amino-3-(difluoromethyl)quinolin-7-yl)oxy)-2-(4-amino-7H-pyrrolo[2,3-d]pyrimidin-7-yl)hexahydro-3aH-cyclopenta[b]furan-3,3a-diol], in assay [2] (setting [3]), the EC50 was 0.7 nM.

On to `Cc1ncnc2c1ccn2[C@@H]1O[C@@H]2[C@H](Oc3ccc4cc(Br)c(N)nc4c3)CC[C@]2(O)[C@H]1O` [Example 129, (2R,3R,3aS,6R,6aR)-6-((2-amino-3-bromoquinolin-7-yl)oxy)-2-(4-methyl-7H-pyrrolo[2,3-d]pyrimidin-7-yl)hexahydro-3aH-cyclopenta[b]furan-3,3a-diol], for which the concentration for a half-maximal effect (EC50) worked out at 33.9 nM in assay [2] (setting [3]) and 31600 nM in assay [2] (setting [4]).

Consider `Nc1ncc2c(F)cn([C@@H]3O[C@@H]4[C@@H](Oc5ccc6cc(Br)c(N)nc6c5)CC[C@]4(O)[C@H]3O)c2n1` [Example 130, (2R,3R,3aS,6S,6aR)-6-((2-amino-3-bromoquinolin-7-yl)oxy)-2-(2-amino-5-fluoro-7H-pyrrolo[2,3-d]pyrimidin-7-yl)hexahydro-3aH-cyclopenta[b]furan-3,3a-diol], for which the half-maximal effective concentration (EC50) in assay [2] (setting [3]) was found to be 0.6 nM.

As for `Cc1ncnc2c1ccn2[C@@H]1O[C@@H]2[C@@H](Cc3ccc4cc(Cl)c(N)nc4c3)CC[C@]2(O)[C@H]1O` [Example 131, (2R,3R,3aS,6R,6aR)-6-((2-amino-3-chloroquinolin-7-yl)methyl)-2-(4-methyl-7H-pyrrolo[2,3-d]pyrimidin-7-yl)hexahydro-3aH-cyclopenta[b]furan-3,3a-diol], the EC50 in assay [2] (setting [3]) came to 0.6 nM.

On to `Nc1nc2cc(CC3OC[C@@]4(O)C3C[C@@H](n3ccc5c(N)ncnc53)[C@@H]4O)ccc2cc1Br` (stereo partly drawn) [Example 132, (3aS,4S,5R)-1-((2-amino-3-bromoquinolin-7-yl)methyl)-5-(4-amino-7H-pyrrolo[2,3-d]pyrimidin-7-yl)tetrahydro-1H-cyclopenta[c]furan-3a,4(3H)-diol], for which the EC50 in assay [2] (setting [3]) is 3.9 nM; in assay [2] (setting [4]) it was 3310 nM.

`Cc1ncnc2c1ccn2[C@@H]1O[C@@H]2[C@H](Cc3ccc4cc(Br)c(N)nc4c3)OC[C@]2(O)[C@H]1O` [Example 133, (2R,3R,3aS,6S,6aR)-6-((2-amino-3-bromoquinolin-7-yl)methyl)-2-(4-methyl-7H-pyrrolo[2,3-d]pyrimidin-7-yl)tetrahydrofuro[3,4-b]furan-3,3a(4H)-diol]: in assay [2] (setting [3]), the concentration giving a half-maximal response (EC50) is 0.8 nM.

Take `Cc1ncnc2c1ccn2[C@@H]1O[C@@H]2[C@@H](Cc3ccc4cc(Br)c(N)nc4c3)OC[C@]2(O)[C@H]1O` [Example 134, (2R,3R,3aS,6R,6aR)-6-((2-amino-3-bromoquinolin-7-yl)methyl)-2-(4-methyl-7H-pyrrolo[2,3-d]pyrimidin-7-yl)tetrahydrofuro[3,4-b]furan-3,3a(4H)-diol]: in assay [2] (setting [3]), the EC50 worked out at 3.5 nM.

Consider `Cc1cn([C@@H]2O[C@@H]3[C@H](Cc4ccc5cc(Br)c(N)nc5c4)OC[C@]3(O)[C@H]2O)c2ncnc(N)c12` [Example 135, (2R,3R,3aS,6S,6aR)-6-((2-amino-3-bromoquinolin-7-yl)methyl)-2-(4-amino-5-methyl-7H-pyrrolo[2,3-d]pyrimidin-7-yl)tetrahydrofuro[3,4-b]furan-3,3a(4H)-diol], for which, in assay [2] (setting [3]), the EC50 stood at 0.4 nM.

`Nc1nc2cc(C[C@@H]3OC[C@@]4(O)[C@@H]3O[C@@H](n3ccc5c(N)ncnc53)[C@@H]4O)ccc2cc1Br` [Example 136, (2R,3R,3aS,6S,6aR)-6-((2-amino-3-bromoquinolin-7-yl)methyl)-2-(4-amino-7H-pyrrolo[2,3-d]pyrimidin-7-yl)tetrahydrofuro[3,4-b]furan-3,3a(4H)-diol]: the EC50 in assay [2] (setting [3]) turned out to be 0.5 nM.

Consider `Nc1nc2cc(C[C@@H]3CC[C@@]4(O)[C@@H]3O[C@@H](n3ccc5c(N)ncnc53)[C@@H]4O)ccc2cc1C(F)F` [Example 137, (2R,3R,3aS,6S,6aR)-6-((2-amino-3-(difluoromethyl)quinolin-7-yl)methyl)-2-(4-amino-7H-pyrrolo[2,3-d]pyrimidin-7-yl)hexahydro-2H-cyclopenta[b]furan-3,3a-diol], for which the EC50 in assay [2] (setting [3]) came to 0.5 nM.

Turning to `Nc1nc2cc(C[C@@H]3CC[C@@]4(O)[C@@H]3O[C@@H](n3ccc5c(N)ncnc53)[C@@H]4O)ccc2cc1C(F)(F)F` [compound 76, (2R,3R,3aS,6S,6aR)-6-((2-amino-3-(trifluoromethyl)quinolin-7-yl)methyl)-2-(4-amino-7H-pyrrolo[2,3-d]pyrimidin-7-yl)hexahydro-3aH-cyclopenta[b]furan-3,3a-diol], in assay [2] (setting [3]), the EC50 was 0.9 nM.

The values above are taken from patent US20230062119A1, “USE OF BIOMARKERS IN IDENTIFYING PATIENTS THAT WILL BE RESPONSIVE TO TREATMENT WITH A PRMT5 INHIBITOR” (Merck Sharp & Dohme LLC, priority 2019, published 2023).
